Experimental findings from patent US7964531B2, “3-phenoxy-4-pyridazinol derivatives and herbicidal composition containing the same” (Mitsui Chemicals Agro, Inc., priority 2001, dated 2011) are described below.

A word on the melting point: it is the temperature of the solid-liquid transition. For `Cn1ccc2c(Oc3nnc(Cl)cc3O)cccc21` [Compound No. 2565, 6-Chloro-3-[(1-methyl-1H-indol-4-yl)oxy]-4-pyridazinol], the melting point was 203 to 206 °C.

Compound `N#CC1(c2ccccc2Oc2nnc(Cl)cc2O)CCC1` [Compound No. 287, 1-{2-[(6-Chloro-4-hydroxy-3-pyridazinyl)oxy]phenyl}cyclobutanecarbonitrile] registered a melting point of 213 to 215 °C.

Compound `Cc1ccccc1Oc1nnc(Cl)cc1OC(=O)c1ccc(Cl)cc1Cl` [Compound No. 1603, 6-Chloro-3-(2-methylphenoxy)-4-pyridazinyl 2,4-dichlorobenzoate] came in with a melting point of 81 to 82.5 °C.

The compound `Cc1ccc(S(=O)(=O)Oc2cc(Cl)nnc2Oc2ccc(C(C)(C)C)cc2Br)cc1` [Compound No. 2245, 3-(2-Bromo-4-tert-butylphenoxy)-6-chloro-4-pyridazinyl 4-methylbenzenesulfonate] returned a melting point of 110 to 112 °C.

Turning to `Cc1cccc(C2CC2)c1Oc1nnc(Cl)cc1OC(=O)c1cc(Cl)cc(Cl)c1` [Compound No. 3226, 6-Chloro-3-(2-cyclopropyl-6-methylphenoxy)-4-pyridazinyl 3,5-dichlorobenzoate], the melting point lay within 168 to 174 °C.

In the case of `Oc1cc(Cl)nnc1Oc1cccc(F)c1F` [Compound No. 437, 6-Chloro-3-(2,3-difluorophenoxy)-4-pyridazinol], the melting point lay within 188 to 193 °C.

On to `CC(C)c1cccc(Br)c1Oc1nnc(Cl)cc1O` [Compound No. 760, 3-(2-Bromo-6-isopropylphenoxy)-6-chloro-4-pyridazinol], for which the melting point was 232 to 253 °C (dec.).

Turning to `CN(C)c1ccc(C=O)c(Oc2nnc(Cl)cc2O)c1` [Compound No. 692, 2-[(6-Chloro-4-hydroxy-3-pyridazinyl)oxy]-4-(dimethylamino)benzaldehyde], the melting point lay in the range of 124 to 127 °C.

The compound `Cc1ccc(C)c(Oc2nnc(Cl)cc2O)c1` [Compound No. 621, 6-Chloro-3-(2,5-dimethylphenoxy)-4-pyridazinol] displayed a melting point of 80 to 83 °C.

On to `Cc1cccc(Oc2nnc(Cl)cc2O)c1C1CC1` [Compound No. 472, 6-Chloro-3-(2-cyclopropyl-3-methylphenoxy)-4-pyridazinol], for which the melting point lay within 197 to 198 °C.

In turn, `Oc1cc(Cl)nnc1Oc1ccc(C2CC2)cc1` [Compound No. 434, 6-Chloro-3-(4-cyclopropylphenoxy)-4-pyridazinol] had a melting point of 221 to 227 °C.

`Cc1ccccc1Oc1nnc(C2CC2)cc1O` [Compound No. 2423, 6-Cyclopropyl-3-(2-methylphenoxy)-4-pyridazinol] gave a melting point of 214 to 215 °C.

`Oc1cc(Cl)nnc1Oc1ccc(Cl)cc1Cl` [Compound No. 552, 6-Chloro-3-(2,4-dichlorophenoxy)-4-pyridazinol]: the melting point lay within 233 to 237 °C.

For the compound `COc1cscc1C(=O)Oc1cc(Cl)nnc1Oc1c(C)cccc1C1CC1` [Compound No. 3378, 6-Chloro-3-(2-cyclopropyl-6-methylphenoxy)-4-pyridazinyl 4-methoxy-3-thiophenecarboxylate], the melting point lay within 146 to 149 °C.

Consider `N#CC1(c2ccccc2Oc2nnc(Cl)cc2O)CC1` [Compound No. 173, 1-{2-[(6-Chloro-4-hydroxy-3-pyridazinyl)oxy]phenyl}cyclopropanecarbonitrile], for which the melting point lay in the range of 63 to 64 °C.

Take `Cc1cc(Cl)ccc1Oc1nnc(Cl)cc1O` [Compound No. 558, 6-Chloro-3-(4-chloro-2-methylphenoxy)-4-pyridazinol]: the melting point was 235 to 235.5 °C.

Compound `CC(C)Oc1ccccc1Oc1nnc(Cl)cc1O` [Compound No. 387, 6-Chloro-3-(2-isopropoxyphenoxy)-4-pyridazinol] registered a melting point of 178 to 179 °C.

`CC(C)c1cccc(I)c1Oc1nnc(Cl)cc1O` [Compound No. 782, 6-Chloro-3-(2-iodo-6-isopropylphenoxy)-4-pyridazinol]: the melting point is 250 to 255 °C.

For the compound `CSc1ccccc1Oc1nnc(Cl)cc1O` [Compound No. 401, 6-Chloro-3-[2-(methylsulfanyl)phenoxy]-4-pyridazinol], the melting point was in the range of 174 to 175 °C.

On to `Cc1ccccc1Oc1nnc(Cl)cc1OC(=O)c1ccccc1C(=O)Oc1cc(Cl)nnc1Oc1ccccc1C` [Compound No. 2827, Bis[6-chloro-3-(2-methylphenoxy)-4-pyridazinyl]phthalate], for which the melting point lay within 157 to 158 °C.

Regarding `COc1cccc(Oc2nnc(Cl)cc2OS(=O)(=O)c2ccc(C)cc2)c1` [Compound No. 2238, 6-Chloro-3-(3-methoxyphenoxy)-4-pyridazinyl 4-methylbenzenesulfonate], the melting point lay within 89 to 90 °C.

`Cc1cc(C)c(C)c(Oc2nnc(Cl)cc2O)c1C` [Compound No. 1125, 6-Chloro-3-(2,3,5,6-tetramethylphenoxy)-4-pyridazinol] gave a melting point of 278 to 283 °C.

The compound `CN(C)S(=O)(=O)n1ccc(-c2ccccc2Oc2nnc(Cl)cc2O)n1` [Compound No. 368, 3-{2-[(6-Chloro-4-hydroxy-3-pyridazinyl)oxy]phenyl}N,N-dimethyl-1H-pyrazole-1-sulfonamide] displayed a melting point of 210 to 212 °C.

Take `CCCc1ccccc1Oc1nnc(Cl)cc1O` [Compound No. 131, 6-Chloro-3-(2-propylphenoxy)-4-pyridazinol]: the melting point lay within 170 to 172 °C.

Consider `C=Cc1cc(O)c(Oc2ccccc2C)nn1` [Compound No. 2436, 3-(2-Methylphenoxy)-6-vinyl-4-pyridazinol], for which the melting point was in the range of 195 to 197 °C.

`CCN(CC)C(=O)Oc1cc(Cl)nnc1Oc1c(C)cccc1C1CC1` yielded a melting point of 119 to 121 °C.

In the case of `Cc1cc(C)c(C)c(Oc2nnc(Cl)cc2O)c1` [Compound No. 1016, 6-Chloro-3-(2,3,5-trimethylphenoxy)-4-pyridazinol], the melting point was in the range of 223 to 224 °C.

In turn, `N#Cc1ccc(C2CC2)c(Oc2nnc(Cl)cc2O)c1` [Compound No. 667, 3-[(6-Chloro-4-hydroxy-3-pyridazinyl)oxy]-4-cyclopropylbenzonitrile] registered a melting point of 211 to 212 °C.

Take `COc1ccccc1Oc1nnc(Cl)cc1OS(=O)(=O)c1ccc(C)cc1` [Compound No. 2232, 6-Chloro-3-(2-methoxyphenoxy)-4-pyridazinyl 4-methylbenzenesulfonate]: the melting point lay within 153 to 157 °C.

`Oc1cc(Cl)nnc1Oc1ccccc1Br` [Compound No. 126, 3-(2-Bromophenoxy)-6-chloro-4-pyridazinol] came in with a melting point of 201 to 203 °C.

`CC(=O)c1cccc(Oc2nnc(Cl)cc2O)c1` [Compound No. 422, 1-{3-[(6-Chloro-4-hydroxy-3-pyridazinyl)oxy]phenyl}ethanone] yielded a melting point of 195 to 198 °C.

`CC(=O)Oc1cc(Cl)nnc1Oc1c(C)cccc1C1CC1` [Compound No. 1151, 6-Chloro-3-(2-cyclopropyl-6-methylphenoxy)-4-pyridazinyl acetate] returned a melting point of 98 to 101 °C.

`CCc1cc(I)cc(I)c1Oc1nnc(Cl)cc1O` [Compound No. 1120, 6-Chloro-3-(2-ethyl-4,6-diiodophenoxy)-4-pyridazinol] registered a melting point of 142 to 144 °C.

For `Cc1cccc(C(C)(C)C)c1Oc1nnc(Cl)cc1O` [Compound No. 805, 3-(2-tert-Butyl-6-methylphenoxy)-6-chloro-4-pyridazinol], the melting point is 135 to 136 °C.

In turn, `Oc1cc(Cl)nnc1Oc1ccccc1C1(c2ccccc2)CC1` [Compound No. 184, 6-Chloro-3-[2-(1-phenylcyclopropyl)phenoxy]-4-pyridazinol] had a melting point of 172 to 173 °C.

`Oc1cc(Cl)nnc1Oc1cc(F)ccc1C1CC1` [Compound No. 658, 6-Chloro-3-(2-cyclopropyl-5-fluorophenoxy)-4-pyridazinol] came in with a melting point of 227 to 228 °C.

For the compound `CC=Cc1cc(O)c(Oc2ccccc2C)nn1` [Compound No. 2442, 3-(2-Methylphenoxy)-6-(1-propenyl)-4-pyridazinol], the melting point lay in the range of 208 to 210 °C.

`CC=Cc1ccc(F)cc1Oc1nnc(Cl)cc1O` [Compound No. 679, 6-Chloro-3-[5-fluoro-2-(1-propenyl)phenoxy]-4-pyridazinol] returned a melting point of 210 to 217 °C.

As for `Cc1ccc(C(C)C)c(Oc2nnc(Cl)cc2OC(=O)c2ccccc2C)c1` [Compound No. 1459, 6-Chloro-3-(2-isopropyl-5-methylphenoxy)-4-pyridazinyl 2-methylbenzoate], the melting point was in the range of 95 to 97 °C.

Compound `CC(C)c1cccc(F)c1Oc1nnc(Cl)cc1O` [Compound No. 717, 6-Chloro-3-(2-fluoro-6-isopropylphenoxy)-4-pyridazinol] showed a melting point of 215 to 220 °C.

The compound `Cc1c(Br)ccc(C2CC2)c1Oc1nnc(Cl)cc1O` [Compound No. 2587, 3-(3-Bromo-6-cyclopropyl-2-methylphenoxy)-6-chloro-4-pyridazinol] showed a melting point of 234 to 235 °C.

For `Oc1cc(Cl)nnc1Oc1c(C2CC2)cccc1C1CC1` [Compound No. 931, 6-Chloro-3-(2,6-dicyclopropylphenoxy)-4-pyridazinol], the melting point lay in the range of 232 to 234 °C.

With `Oc1cc(Cl)nnc1Oc1ccccc1Cl` [Compound No. 125, 6-Chloro-3-(2-chlorophenoxy)-4-pyridazinol], the melting point was in the range of 208 to 212 °C.

Turning to `COc1ccc(OC)c(Oc2nnc(Cl)cc2O)c1` [Compound No. 709, 6-Chloro-3-(2,5-dimethoxyphenoxy)-4-pyridazinol], the melting point was in the range of 150 to 152 °C.

As to `CC(C)(C)c1cccc(C2CC2)c1Oc1nnc(Cl)cc1O` [Compound No. 914, 3-(2-tert-Butyl-6-cyclopropylphenoxy)-6-chloro-4-pyridazinol], the melting point was 230 to 231 °C.

The compound `Oc1cc(Cl)nnc1Oc1c(C2CC2)ccc2ccoc12` [Compound No. 1102, 6-Chloro-3-[(6-cyclopropyl-1-benzofuran-7-yl)oxy]-4-pyridazinol] returned a melting point of 175 to 180 °C.
